The text below walks through data of ChEMBL document CHEMBL2321873, “1-(4-Phenylpiperazin-1-yl)-2-(1H-pyrazol-1-yl)ethanones as novel CCR1 antagonists” (Bioorg Med Chem Lett, 2013).

Data set [1] can be described thus: Stability of the compound at pH 7.4. Conditions: buffer. In kind it is physicochemical.
Data set [2] in a line: Oral bioavailability in Sprague-Dawley rat at 5 mg/kg. Format: ADME, organism-based. Conditions: in vivo.
The nature of data set [3]: Clearance in Sprague-Dawley rat at 0.5 mg/kg, iv. The note with it: in vivo. In kind it is ADME, organism-based. More on the design: dose 0.5 mg/kg, route intravenous.
Data set [4] can be described thus: Half life in Sprague-Dawley rat at 0.5 mg/kg, iv. Format: ADME, organism-based. More on the design: dose 0.5 mg/kg, route intravenous. The note with it: in vivo.

For the compound `COc1cc(N2CCN(C(=O)Cn3nc(C(F)(F)F)c(Cl)c3C)[C@H](CO)C2)ccc1Cl`, the Stability result in data set [1] is “Unstable”.

In general, bioavailability refers to dose-corrected exposure relative to a reference, in per cent. The low end stands for poor availability, the high end for good availability. By clearance is commonly meant a measure of how efficiently the substance is removed, as volume per time. Low readings indicate inefficient removal, high ones efficient removal. Usually half-life stands for how long it takes for the measured level to halve. A lower half-life goes with fast loss. As for `Cc1c(Cl)c(C(F)(F)F)nn1CC(=O)N1CCN(c2ccc(F)cc2)CC1`, the bioavailability in data set [2] is 10%. The compound further gave a clearance in data set [3] of 23 mL/min/kg. This compound gave a half-life in data set [4] of 114 min.
